Experimental data from patent publication US12275731B2, “Azaindole inhibitors of wild-type and mutant forms of LRRK2” (DANA-FARBER CANCER INSTITUTE, INC., priority 2018, dated 2025).

Tests used:
Assay in all cases: KinomeScan profiling
Assay type in all cases: binding
DRAK1 = biological target: T1, DRAK1 (Homo sapiens, UniProt Q9UEE5); conditions: DRAK1, 1 μM; read-out: % control
T1 sequence (Q9UEE5 1-414): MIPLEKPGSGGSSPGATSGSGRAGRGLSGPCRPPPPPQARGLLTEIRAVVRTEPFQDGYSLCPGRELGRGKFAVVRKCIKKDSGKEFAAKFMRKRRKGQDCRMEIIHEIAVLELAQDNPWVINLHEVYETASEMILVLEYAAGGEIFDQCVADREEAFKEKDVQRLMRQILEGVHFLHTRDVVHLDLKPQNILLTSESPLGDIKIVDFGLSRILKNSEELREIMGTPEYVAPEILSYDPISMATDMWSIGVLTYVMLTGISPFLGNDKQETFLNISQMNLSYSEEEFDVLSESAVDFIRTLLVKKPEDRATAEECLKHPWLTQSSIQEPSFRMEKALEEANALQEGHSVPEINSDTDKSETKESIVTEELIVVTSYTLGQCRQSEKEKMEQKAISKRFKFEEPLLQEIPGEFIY
Method in brief: (§1)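 The panel spans 468 kinases, and each inventive compound was applied at 1 μM from DMSO. Lower % control means stronger binding; the activity cut-off is set at less than 35%.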

HIPK3 = HIPK3 (Homo sapiens, UniProt Q9H422); conditions: HIPK3, 1 μM; read-out: % control
Method in brief: as §1

CAMKK2 = CAMKK2 (Homo sapiens, UniProt Q96RR4); conditions: CAMKK2, 1 μM; read-out: % control
Method in brief: as §1

EGFR(G719C) = EGFR(G719C) (Homo sapiens, UniProt P00533, G719C); conditions: read-out: % control
Method in brief: as §1

CSNK1A1 = CSNK1A1 (Homo sapiens, UniProt P48729); conditions: CSNK1A1, 1 μM; read-out: % control
Method in brief: as §1

HUNK = biological target: T2, HUNK (Homo sapiens, UniProt P57058); conditions: read-out: % control
T2 sequence (P57058 1-714): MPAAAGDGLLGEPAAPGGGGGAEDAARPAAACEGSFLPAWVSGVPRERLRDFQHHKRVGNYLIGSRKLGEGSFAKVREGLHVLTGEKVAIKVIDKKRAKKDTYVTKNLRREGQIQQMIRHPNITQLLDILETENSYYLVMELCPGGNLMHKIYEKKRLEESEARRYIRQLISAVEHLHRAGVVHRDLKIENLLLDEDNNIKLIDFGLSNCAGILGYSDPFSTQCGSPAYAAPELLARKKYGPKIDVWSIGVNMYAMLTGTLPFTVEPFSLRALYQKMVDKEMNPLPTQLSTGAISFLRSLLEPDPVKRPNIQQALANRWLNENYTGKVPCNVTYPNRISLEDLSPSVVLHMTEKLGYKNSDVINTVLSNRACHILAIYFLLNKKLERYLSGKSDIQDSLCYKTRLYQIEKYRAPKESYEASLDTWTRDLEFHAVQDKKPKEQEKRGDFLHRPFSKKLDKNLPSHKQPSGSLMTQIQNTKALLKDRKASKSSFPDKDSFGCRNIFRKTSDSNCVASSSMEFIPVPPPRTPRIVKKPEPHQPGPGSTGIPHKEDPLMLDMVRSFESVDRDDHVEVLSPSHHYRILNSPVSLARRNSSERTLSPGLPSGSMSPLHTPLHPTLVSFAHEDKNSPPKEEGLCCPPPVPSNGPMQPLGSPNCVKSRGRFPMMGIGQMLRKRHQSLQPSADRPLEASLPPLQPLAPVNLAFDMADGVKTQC
Method in brief: as §1

EPHB4 = biological target: T3, EPHB4 (Homo sapiens, UniProt P54760); conditions: EPHB4, 1 μM; read-out: % control
T3 sequence (P54760 16-987): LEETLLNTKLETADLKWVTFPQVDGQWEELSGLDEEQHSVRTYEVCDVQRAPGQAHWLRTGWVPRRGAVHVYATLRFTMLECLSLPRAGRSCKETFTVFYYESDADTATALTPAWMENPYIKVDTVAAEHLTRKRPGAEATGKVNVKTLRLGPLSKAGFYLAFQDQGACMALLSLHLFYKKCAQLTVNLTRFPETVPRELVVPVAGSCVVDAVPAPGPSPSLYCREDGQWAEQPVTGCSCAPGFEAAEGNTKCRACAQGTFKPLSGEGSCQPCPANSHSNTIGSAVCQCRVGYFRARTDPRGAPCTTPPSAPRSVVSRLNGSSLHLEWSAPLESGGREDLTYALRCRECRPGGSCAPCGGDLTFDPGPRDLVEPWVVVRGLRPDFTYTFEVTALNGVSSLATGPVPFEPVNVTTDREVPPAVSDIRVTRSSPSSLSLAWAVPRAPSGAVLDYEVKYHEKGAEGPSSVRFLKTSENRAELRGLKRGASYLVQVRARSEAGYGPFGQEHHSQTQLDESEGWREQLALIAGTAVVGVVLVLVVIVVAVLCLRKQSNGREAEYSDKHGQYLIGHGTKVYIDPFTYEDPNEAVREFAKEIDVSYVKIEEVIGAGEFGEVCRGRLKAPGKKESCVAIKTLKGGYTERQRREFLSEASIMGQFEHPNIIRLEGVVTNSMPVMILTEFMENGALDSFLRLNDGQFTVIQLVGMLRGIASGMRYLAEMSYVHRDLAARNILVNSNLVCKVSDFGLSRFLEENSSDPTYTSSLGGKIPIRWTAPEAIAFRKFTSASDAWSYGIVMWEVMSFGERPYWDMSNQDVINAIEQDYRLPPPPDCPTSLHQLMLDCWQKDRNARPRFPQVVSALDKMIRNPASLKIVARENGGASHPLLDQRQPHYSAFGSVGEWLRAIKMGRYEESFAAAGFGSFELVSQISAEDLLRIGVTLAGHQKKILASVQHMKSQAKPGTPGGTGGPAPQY
Method in brief: as §1

PIK3CA(Q546K) = biological target: T4, PIK3CA(Q546K) (Homo sapiens, UniProt P42336, Q546K); conditions: read-out: % control
T4 construct: purchased KinomeScan® (panel service)
Method in brief: as §1

CAMKK1 = CAMKK1 (Homo sapiens, UniProt Q8N5S9); conditions: CAMKK1, 1 μM; read-out: % control
Method in brief: as §1

ERBB2 = ERBB2 (Homo sapiens, UniProt P04626); conditions: ERBB2, 1 μM; read-out: % control
Method in brief: as §1

Sequence of EGFR(G719C) (P00533 25-1210 G719C): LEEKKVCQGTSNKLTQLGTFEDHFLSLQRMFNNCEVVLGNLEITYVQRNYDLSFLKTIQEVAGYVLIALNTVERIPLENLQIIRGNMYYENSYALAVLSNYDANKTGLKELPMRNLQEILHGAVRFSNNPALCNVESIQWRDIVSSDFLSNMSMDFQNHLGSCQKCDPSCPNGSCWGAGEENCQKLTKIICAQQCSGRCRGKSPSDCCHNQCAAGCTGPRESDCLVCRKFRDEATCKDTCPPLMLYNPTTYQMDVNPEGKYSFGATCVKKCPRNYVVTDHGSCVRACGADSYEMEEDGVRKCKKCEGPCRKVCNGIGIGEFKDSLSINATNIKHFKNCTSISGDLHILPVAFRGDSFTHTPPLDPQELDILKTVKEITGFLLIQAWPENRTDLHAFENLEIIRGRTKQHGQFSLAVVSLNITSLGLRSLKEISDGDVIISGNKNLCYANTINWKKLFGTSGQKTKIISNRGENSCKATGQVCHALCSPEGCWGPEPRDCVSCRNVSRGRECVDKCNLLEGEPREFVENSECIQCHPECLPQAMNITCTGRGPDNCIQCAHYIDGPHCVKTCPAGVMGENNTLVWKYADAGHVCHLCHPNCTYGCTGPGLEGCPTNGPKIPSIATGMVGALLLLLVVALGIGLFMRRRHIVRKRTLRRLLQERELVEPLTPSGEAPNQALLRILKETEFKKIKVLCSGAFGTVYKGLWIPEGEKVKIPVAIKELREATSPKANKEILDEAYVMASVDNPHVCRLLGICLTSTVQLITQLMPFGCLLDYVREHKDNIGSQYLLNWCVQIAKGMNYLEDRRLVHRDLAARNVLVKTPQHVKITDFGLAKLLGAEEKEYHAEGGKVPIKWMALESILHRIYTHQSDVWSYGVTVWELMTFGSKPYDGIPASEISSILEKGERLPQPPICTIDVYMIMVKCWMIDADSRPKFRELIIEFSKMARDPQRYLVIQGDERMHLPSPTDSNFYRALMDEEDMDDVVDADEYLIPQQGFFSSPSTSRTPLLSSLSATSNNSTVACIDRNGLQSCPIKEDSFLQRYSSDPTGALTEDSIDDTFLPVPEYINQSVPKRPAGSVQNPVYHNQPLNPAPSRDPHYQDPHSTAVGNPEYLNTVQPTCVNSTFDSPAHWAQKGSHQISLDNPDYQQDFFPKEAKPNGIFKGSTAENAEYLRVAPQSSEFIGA
Sequence of CSNK1A1 (P48729 whole entry): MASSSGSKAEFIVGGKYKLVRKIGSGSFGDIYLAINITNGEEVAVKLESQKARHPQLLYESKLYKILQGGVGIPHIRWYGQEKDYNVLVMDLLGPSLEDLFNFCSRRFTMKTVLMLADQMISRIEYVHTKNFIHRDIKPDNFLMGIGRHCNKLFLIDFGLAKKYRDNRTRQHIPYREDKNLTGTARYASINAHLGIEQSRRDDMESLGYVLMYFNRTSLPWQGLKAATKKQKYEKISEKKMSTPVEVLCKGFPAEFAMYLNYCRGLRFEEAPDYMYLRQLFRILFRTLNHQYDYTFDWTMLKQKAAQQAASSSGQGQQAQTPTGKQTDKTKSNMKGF
Sequence of HIPK3 (Q9H422 whole entry): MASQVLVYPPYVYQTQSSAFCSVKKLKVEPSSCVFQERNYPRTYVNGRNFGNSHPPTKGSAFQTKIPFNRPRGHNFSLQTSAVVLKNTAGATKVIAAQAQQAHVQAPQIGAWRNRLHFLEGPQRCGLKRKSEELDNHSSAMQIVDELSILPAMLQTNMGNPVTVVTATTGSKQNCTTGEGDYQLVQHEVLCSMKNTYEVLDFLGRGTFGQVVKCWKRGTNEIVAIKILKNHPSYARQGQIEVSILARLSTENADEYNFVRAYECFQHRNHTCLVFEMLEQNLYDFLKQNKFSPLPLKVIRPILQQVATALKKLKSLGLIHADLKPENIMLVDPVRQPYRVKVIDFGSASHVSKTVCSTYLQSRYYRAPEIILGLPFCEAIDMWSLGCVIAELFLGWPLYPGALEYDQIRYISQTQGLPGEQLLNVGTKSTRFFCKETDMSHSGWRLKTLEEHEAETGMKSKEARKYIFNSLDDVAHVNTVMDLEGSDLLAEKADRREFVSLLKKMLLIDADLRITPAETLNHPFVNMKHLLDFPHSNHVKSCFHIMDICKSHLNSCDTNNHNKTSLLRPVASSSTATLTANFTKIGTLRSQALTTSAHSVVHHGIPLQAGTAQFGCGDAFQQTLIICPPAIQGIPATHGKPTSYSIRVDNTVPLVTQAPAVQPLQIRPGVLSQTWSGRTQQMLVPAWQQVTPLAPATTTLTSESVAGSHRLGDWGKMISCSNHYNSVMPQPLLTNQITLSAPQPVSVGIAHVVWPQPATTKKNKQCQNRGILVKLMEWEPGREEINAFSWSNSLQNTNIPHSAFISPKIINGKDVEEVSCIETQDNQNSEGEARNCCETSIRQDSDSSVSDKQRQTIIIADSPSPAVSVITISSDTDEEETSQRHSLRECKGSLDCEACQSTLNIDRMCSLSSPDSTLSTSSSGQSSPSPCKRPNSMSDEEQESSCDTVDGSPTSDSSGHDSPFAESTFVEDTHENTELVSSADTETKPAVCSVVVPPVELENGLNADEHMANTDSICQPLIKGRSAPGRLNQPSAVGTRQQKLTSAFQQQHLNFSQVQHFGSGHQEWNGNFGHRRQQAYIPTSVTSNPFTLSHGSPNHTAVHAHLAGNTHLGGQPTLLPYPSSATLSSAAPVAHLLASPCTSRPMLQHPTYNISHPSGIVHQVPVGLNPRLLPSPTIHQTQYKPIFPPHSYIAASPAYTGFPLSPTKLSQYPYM
T4 sequence (P42336 whole entry Q546K): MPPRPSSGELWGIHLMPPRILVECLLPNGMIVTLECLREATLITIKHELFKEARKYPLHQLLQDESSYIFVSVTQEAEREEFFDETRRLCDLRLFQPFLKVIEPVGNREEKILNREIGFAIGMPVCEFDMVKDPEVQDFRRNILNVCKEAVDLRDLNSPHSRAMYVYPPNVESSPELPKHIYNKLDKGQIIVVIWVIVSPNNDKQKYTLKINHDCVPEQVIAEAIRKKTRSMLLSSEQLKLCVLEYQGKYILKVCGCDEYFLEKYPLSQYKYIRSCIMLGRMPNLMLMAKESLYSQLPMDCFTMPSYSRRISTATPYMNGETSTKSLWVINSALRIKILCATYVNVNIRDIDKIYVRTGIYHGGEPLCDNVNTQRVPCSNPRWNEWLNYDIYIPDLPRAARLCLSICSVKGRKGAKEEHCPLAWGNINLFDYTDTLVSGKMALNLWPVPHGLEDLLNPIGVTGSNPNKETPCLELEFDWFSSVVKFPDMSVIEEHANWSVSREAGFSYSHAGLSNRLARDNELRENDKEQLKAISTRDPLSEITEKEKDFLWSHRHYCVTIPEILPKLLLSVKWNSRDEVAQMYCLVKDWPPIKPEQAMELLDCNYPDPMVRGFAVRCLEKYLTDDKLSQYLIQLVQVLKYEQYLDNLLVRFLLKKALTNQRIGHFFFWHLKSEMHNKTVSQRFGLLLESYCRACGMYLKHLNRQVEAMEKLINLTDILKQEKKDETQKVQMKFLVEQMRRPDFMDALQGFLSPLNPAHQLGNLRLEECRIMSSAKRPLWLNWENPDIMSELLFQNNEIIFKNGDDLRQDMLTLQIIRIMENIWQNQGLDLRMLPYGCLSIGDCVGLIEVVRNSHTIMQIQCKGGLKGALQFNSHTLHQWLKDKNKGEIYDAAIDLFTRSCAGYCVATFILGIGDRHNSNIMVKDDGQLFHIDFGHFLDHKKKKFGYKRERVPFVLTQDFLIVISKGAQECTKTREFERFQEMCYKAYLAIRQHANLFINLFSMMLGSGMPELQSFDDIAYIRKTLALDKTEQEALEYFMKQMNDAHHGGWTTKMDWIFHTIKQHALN
Sequence of ERBB2 (P04626 23-1255): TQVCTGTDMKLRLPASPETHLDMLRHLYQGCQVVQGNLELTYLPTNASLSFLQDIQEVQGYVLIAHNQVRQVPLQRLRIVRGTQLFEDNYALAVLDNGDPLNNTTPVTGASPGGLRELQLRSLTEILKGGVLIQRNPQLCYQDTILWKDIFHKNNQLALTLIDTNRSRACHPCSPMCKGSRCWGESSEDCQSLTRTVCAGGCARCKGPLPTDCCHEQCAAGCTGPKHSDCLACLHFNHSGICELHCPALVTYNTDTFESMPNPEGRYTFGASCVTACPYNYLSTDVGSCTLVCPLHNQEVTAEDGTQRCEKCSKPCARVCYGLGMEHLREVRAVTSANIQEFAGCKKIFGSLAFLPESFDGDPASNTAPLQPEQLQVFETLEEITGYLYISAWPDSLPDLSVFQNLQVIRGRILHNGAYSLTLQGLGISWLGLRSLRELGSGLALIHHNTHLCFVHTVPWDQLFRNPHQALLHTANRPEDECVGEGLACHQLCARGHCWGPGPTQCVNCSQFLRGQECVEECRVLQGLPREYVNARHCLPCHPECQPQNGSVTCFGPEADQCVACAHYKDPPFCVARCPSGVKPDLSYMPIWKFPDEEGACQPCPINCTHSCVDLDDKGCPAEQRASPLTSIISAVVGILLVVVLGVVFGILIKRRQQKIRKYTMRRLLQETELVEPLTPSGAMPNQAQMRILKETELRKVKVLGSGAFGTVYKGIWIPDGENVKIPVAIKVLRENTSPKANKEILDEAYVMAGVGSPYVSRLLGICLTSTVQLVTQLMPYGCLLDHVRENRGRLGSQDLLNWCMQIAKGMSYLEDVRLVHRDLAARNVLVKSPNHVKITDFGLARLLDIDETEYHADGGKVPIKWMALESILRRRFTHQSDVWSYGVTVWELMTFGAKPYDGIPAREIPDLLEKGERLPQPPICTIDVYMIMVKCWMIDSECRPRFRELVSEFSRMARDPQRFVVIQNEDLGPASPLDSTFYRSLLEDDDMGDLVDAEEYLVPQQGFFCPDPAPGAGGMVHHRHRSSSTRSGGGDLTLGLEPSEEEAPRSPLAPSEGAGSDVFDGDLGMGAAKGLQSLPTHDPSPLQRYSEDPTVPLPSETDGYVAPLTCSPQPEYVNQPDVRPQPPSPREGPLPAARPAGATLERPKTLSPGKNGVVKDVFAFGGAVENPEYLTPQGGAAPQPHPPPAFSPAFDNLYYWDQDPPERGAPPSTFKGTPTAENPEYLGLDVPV

CNc1c(-c2cnn([C@H]3CCN(C(C)=O)C[C@@H]3F)c2)cnc2[nH]cc(Cl)c12 [Compound 77, 1-((3S,4S)-4-(4-(3-chloro-4-(methylamino)-1H-pyrrolo[2,3-b]pyridin-5-yl)-1H-pyrazol-1-yl)-3-fluoropiperidin-1-yl)ethan-1-one]
remaining binding at 1 µM (DRAK1): 81% | remaining binding at 1 µM (HIPK3): 85% | remaining binding at 1 µM (CAMKK2): 79% | remaining binding at 1 µM (EGFR(G719C)): 91% | remaining binding at 1 µM (CSNK1A1): 96% | remaining binding at 1 µM (HUNK): 100% | remaining binding at 1 µM (EPHB4): 100% | remaining binding at 1 µM (PIK3CA(Q546K)): 100% | remaining binding at 1 µM (CAMKK1): 74% | remaining binding at 1 µM (ERBB2): 63%

CNc1c(-c2ccc(C(=O)N3CCC(N4CCOCC4)CC3)cc2)cnc2[nH]cc(Cl)c12 [Compound 96, (4-(3-chloro-4-(methylamino)-1H-pyrrolo[2,3-b]pyridin-5-yl)phenyl)(4-morpholinopiperidin-1-yl)methanone]
remaining binding at 1 µM (DRAK1): 56% | remaining binding at 1 µM (HIPK3): 79% | remaining binding at 1 µM (CAMKK2): 82% | remaining binding at 1 µM (EGFR(G719C)): 100% | remaining binding at 1 µM (CSNK1A1): 100% | remaining binding at 1 µM (HUNK): 100% | remaining binding at 1 µM (EPHB4): 100% | remaining binding at 1 µM (PIK3CA(Q546K)): 100% | remaining binding at 1 µM (CAMKK1): 78% | remaining binding at 1 µM (ERBB2): 80%

O=C(c1ccc(-c2cnc3[nH]cc(Cl)c3c2NC2CCCC2)cc1)N1CCC(N2CCOCC2)CC1 [Compound 101, (4-(3-chloro-4-(cyclopentylamino)-1H-pyrrolo[2,3-b]pyridin-5-yl)phenyl)(4-morpholinopiperidin-1-yl)methanone]
remaining binding at 1 µM (DRAK1): 100% | remaining binding at 1 µM (HIPK3): 100% | remaining binding at 1 µM (CAMKK2): 88% | remaining binding at 1 µM (EGFR(G719C)): 91% | remaining binding at 1 µM (CSNK1A1): 89% | remaining binding at 1 µM (HUNK): 100% | remaining binding at 1 µM (EPHB4): 62% | remaining binding at 1 µM (PIK3CA(Q546K)): 93% | remaining binding at 1 µM (CAMKK1): 87% | remaining binding at 1 µM (ERBB2): 92%
